Test results taken from paper PMC6005341, “Identification of “sarsasapogenin-aglyconed” timosaponins as novel Aβ-lowering modulators of amyloid precursor protein processing” (Chemical Science, 2016).

Columns and labels:
[1] = tested on: brain Aβ / amyloid in APPswe transgene; conditions: cited from earlier work
[2] = tested on: Mouse primary cortical neurons; set-up: method as in earlier work; conditions: ref J. Biol. Chem. (2005) 280: 5829, J. Biol. Chem. (2010) 285:28472, read-out: In vitro IC50 Aβ inhibition; cited from earlier work
[3] = tested on: β-secretase; set-up: method as in PMID 23082924; conditions: rat retina; cited from earlier work
[4] = tested on: HEK293 expressing APP; set-up: method as in J. Biol. Chem. (2010) 285:9110; conditions: ref J. Biol. Chem. (2010) 285:9110, read-out: In vitro IC50 Aβ inhibition; cited from earlier work
[5] = tested on: Brain Aβ42 in APP/PS1 transgene; set-up: method as in J. Biol. Chem. (2010) 285:9110; conditions: diet with 0.35% for 15 weeks, ref J. Biol. Chem. (2010) 285:9110; cited from earlier work
[6] = tested on: N2A expressing APPswe; set-up: method as in J. Neurosci., (2005) 25:8807; conditions: ref J. Neurosci., (2005) 25:8807, read-out: In vitro IC50 Aβ inhibition; cited from earlier work
[7] = Plasma and brain concentrations by LC-MS/MS; assay type: in vivo, mice
Protocol: (§1) Animal experiments: Male C57BL/6N mice were housed in environmentally controlled room (temperature: 25 ± 2 °C, humidity: 50 ± 5%, 12-h light-dark cycle) in Laboratory Animal Unit, The University of Hong Kong and were freely access to food and water. TAIII, TAI SSG and compound 34 were dissolved in 5% Tween 80 and given to the mice by oral gavage at three repeated doses of 100 mg/kg in 48 hours. Mice were administrated with 5% Tween 80 (control group), TAIII, TAI SSG and 34. The experimental procedures were performed with the approval of Committee of Use of Live Animal for Teaching and Research of The University of Hong Kong. Blood (about 600-800 µL) was collected by cardiac puncture and added with 1/10 volume of Na2EDTA (20 mg/mL) to prevent coagulation. After centrifugation at 3000 g for 15 min at 4 °C, plasma was transferred to a centrifuge tube. The brain was dissected into two hemispheres on ice, weighed and frozen in liquid nitrogen immediately. The left brain was homogenized with 1 mL of buffer containing 5 M guanidine HCl, 50 mM Tris HCl, pH 8.0, with protease inhibitor cocktail and AEBSF using a Polytron and the homogenates were allowed to stand at room temperature for 3h. Both plasma and brain samples were stored at -80 °C until they were analyzed. […]
B. Determination of timosaponin levels in mice plasma and brain by ultra-high pressure liquid chromatography tandem mass spectrometry
The UPLC-ESI-QTOF consists of a Waters Q-TOF PremierTM mass spectrometer (Micromass MS Technologies, Manchester, UK) operated in positive ion mode and a Waters ACQUITY TM UPLC system. The mass spectrometer conditions were optimized as follows: source […]
temperature, 120 °C; desolvation temperature, 500 °C; nebulization gas flow rate, 1000 L/h; cone gas flow rate, 20 L/h; capillary voltage, 2.5 kV; sampling cone voltage, 28V. The data were collected into two separate data channels with the instrument spending 0.5 s on data acquisition for each channel and a 0.1 s inter-channel delay. The mass spectrometer was calibrated by using the solution of sodium formate (0.5 mM) and the TOF scan range was from 100 to 1000 Da. In order to improve mass measurement accuracy a lock mass compound (50 pg µL−1 solution of leucine encephalin; m/z 556.2771) was continuously infused at a 0.5 mL min-1 using the built-in syringe pump of the instrument.
Sample was loaded into a Waters ACQUITY TM BEH C18 column (100 × 2.1 mm i.d., 1.7 µM) connected to a Waters ACQUITY TM BEH C18 guard column (5 × 2.1 mm i.d., 1.7 µM). The gradient elution system consisted of 0.1% formic acid in water (A) and 0.1% formic acid in acetonitrile (B). Separation was achieved by using: 30%-55% B from 0 to 3 min; 55-100% B from 3 to 6 min; 100% B from 6 to 12 min and returned to initial conditions and equilibrated for 3 minutes. The flow rate was 0.3 mL/min and the injection volume was 5 µL.
Standard preparation and sample preparation
Stock solution (10 µM ) of each analyte was prepared by dissolving in methanol. They were subject to serial dilution to give calibration curves of SSG 1 (plasma: y = 8.7485× - 0.0676; […]
each concentration of each analyte was transferred to a centrifuge tube and evaporated to dryness by a concentrator. Dioscin (20 µL , 10 µM) was added as an internal standard followed by methanol (130 µL) and control plasma (50 µL). The mixture was vortexed for 5 s and centrifuged (15000 × g) for 15 min. The supernatant was collected and evaporated to dryness by a concentrator. Methanol (100 µL) was added and then vortexed again for 10 s and centrifuged (15000 × g) for 20 min. The supernatant (5 µL) was subject to LC-MS/MS analysis. Analyte-treated plasma, control brain and analyte-treated brain were prepared in a […]
The acquisition and processing of data were performed by Masslynx (version 4.1) software.
Mass window of ±10 mDa and mass resolution of 9000 were set for both molecular ions and product ions. MS full scan was applied to acquire high abundant molecular ions [M+H]+ with […]

[8] = tested on: Aβ42 levels in the brain; experiment: In vivo brain Aβ42 level by ELISA after oral dosing; conditions: 100 mg kg^–1 oral gavage, three times in 2 days, 3–5 month old C57BL/6 mice
Protocol: was performed at least three times. The lowest binding scores were computed and the conformations of the corresponding binding pose presented.
Quantum mechanics/Molecular mechanics. The binding between transmembrane and substrate was further optimized using the QM/MM approach and NWChem software. The quantum part (QM) included TAIII (total 116 atoms), while the rest of the system was modelled as the molecular mechanics (MM) level. The QM region was treated at the DFT level using the B3LYP method. The 6-31G* Pople basis set was employed for all the atoms.
The transmembrane was described with the AMBER parm99 force field. The binding structure was solvated in a cubic box with 6872 classical SPC/E water molecules. Three negative counter ions (Cl-) were added to neutralize the charges in the system. The structure was optimized by performing the BFGS algorithm for the QM part and the steepest descent algorithm for the MM part. The optimization of these two regions (QM and MM) was alternated until self-consistency was reached.
as §1, with “The brain was dissected into two hemispheres on ice, weighed and frozen in liquid nitrogen immediately. The left brain was homogenized with 1 mL of buffer containing 5 M guanidine HCl, 50 mM Tris HCl, pH 8.0, with protease inhibitor cocktail and AEBSF using a Polytron and the homogenates were allowed to stand at room temperature for 3h.” left out, “analyzed. The Aβ42 levels were determined by Wako High Sensitive Aβx-42 ELISA kit.” for “analyzed.”

[9] = tested on: Aβ42 production in N2A-APPswe cells; experiment: Aβ42 in conditioned medium of N2A-APPswe cells by ELISA, 18 h treatment; assay type: cell-based; conditions: N2a-APPswe, read-out: IC50 in lowering Aβ42 production, N2A-APPswe cells; mean ± standard deviation; n ≥ 3
Source text: Sigma-Aldrich Chemical Co. unless otherwise specified. SSG (1) was purchased from Wako Pure Chemical Industries, Ltd. Diosgenin (6), Dioscin (9), Polyphyllin D (10), Timosaponin BI (22) and Timosaponin BII (23) were purchased from Chengdu Must Bio-Technology Co.
Ltd. Yamogenin (7) was bought from Ambinter c/o Greenpharma while Smilagenin (24) was bought from Steraloids Inc. Substances dissolved in DMSO as stock solutions. Cell culture medium constituents were purchased from Life Technologies, Inc.
Cell culture: Neuro-2A cells expressing Swedish mutants of APP (N2A-APPswe provided by Prof. Yifan Han, The Hong Kong Polytechnic University)1 was cultured in minimal essential medium with 2 mM glutamine, 2 mM pyruvate and 10% fetal bovine serum. […]
Aβ ELISA: Aβ concentrations in conditioned medium were assayed using ELISA kits for […]

[10] = tested on: SH-SY5Y Cells expressing APP; set-up: method as in J Neurosci. (2005) 25: 3032; J. Biol. Chem (2011) 286:14028; conditions: ref J Neurosci. (2005) 25: 3032, J. Biol. Chem (2011) 286:14028, read-out: In vitro IC50 Aβ inhibition; cited from earlier work
[11] = tested on: HEK293 expressing APPswe; set-up: method as in J Neurosci Res (2012) 92: 108; conditions: ref J Neurosci Res (2012) 92: 108, read-out: In vitro IC50 Aβ inhibition; cited from earlier work
[12] = any metabolite, mice n = 6, three oral doses 100 mg/kg in two days

Compound: COc1cc(/C=C/C(=O)CC(=O)/C=C/c2ccc(O)c(OC)c2)ccc1O [Curcumin]
- Amyloid deposition ([1]; chow with 500 ppm for 22 weeks, ref J. Biol. Chem. (2005) 280: 5829, J. Biol. Chem. (2010) 285:28472): reduced
- IC50 [2]: > 20 µM

Compound: C[C@@H](CC[C@@]1(O)O[C@H]2C[C@H]3[C@@H]4CC[C@@H]5C[C@@H](O[C@@H]6O[C@H](CO)[C@H](O)[C@H](O)[C@H]6O[C@@H]6O[C@H](CO)[C@@H](O)[C@H](O)[C@H]6O)CC[C@]5(C)[C@H]4CC[C@]3(C)[C@H]2[C@@H]1C)CO[C@@H]1O[C@H](CO)[C@@H](O)[C@H](O)[C@H]1O [Timosaponin B II (23), timosaponin B II]
- up-regulation of β-secretase induced by ferric chloride [3]: inhibit

Compound: Oc1ccc(/C=C/c2cc(O)cc(O)c2)cc1 [Resveratrol]
- IC50 [4]: ~20 µM
- Brain Aβ42 reduced by [5]: 20%

Compound: Epigallocatechin-3-gallate [Epigallocatechin-3-gallate (EGCG)]
- IC50 [6]: ~20 µM

Compound: CC1CCC2(OC1)OC1CC3C4CCC5CC(OCC(=O)NCC6OC(O)C(O)C(O)C6O)CCC5(C)C4CCC3(C)C1C2C (stereo not drawn) [α-, β-OH SSG (34), α-, β-OH SSG]
- Brain Metabolite [7, 12]: Not detected
- Plasma Metabolite [7, 12]: Not detected
- Brain Precursor ([7]; mice n = 6, three oral doses 100 mg/kg in two days): 0.025 ± 0.041 µM
- Plasma Precursor ([7]; mice n = 6, three repeated oral doses 100 mg/kg in two days): 0.051 ± 0.072 µM
- reduction of Aβ42 levels in the brain [8]: 87% ± 15%
- IC50 [9]: 7.3 ± 4 µM

Compound: CC/C=C\C/C=C\C/C=C\C/C=C\C/C=C\C/C=C\CCC(=O)O [docosahexaenoic acid]
- Total Aβ reduced by ([1]; diet with 0.5% level for 5 months, ref J Neurosci. (2005) 25: 3032, J. Biol. Chem (2011) 286:14028): 70%
- IC50 [10]: ~100 µM

Compound: C/C=C1\[C@H]2C=C(C)C[C@]1(N)c1ccc(=O)[nH]c1C2 [Huperzine A]
- IC50 [11]: ~10 µM
